Test results as given in patent US20130296346A1, “DIPHENYL-AMINE DERIVATIVES: USES, PROCESS OF SYNTHESIS AND PHARMACEUTICAL COMPOSITIONS” (Faes Farma, S.A., priority 2010, published 2013).
“Also recorded” adds a separate entry of the source. Marks after values point to notes of the source that are not given here.

Experiments:
EHEB cells = experiment: Chronic lymphocytic leukaemia xenograft animal model; type: in vivo, CB17-SCID mice
Description: The chronic lymphocytic leukaemia (CLL) EHEB cell line was cultured in RPMI-1640 medium containing 10% (v/v) heat-inactivated fetal bovine serum, 2 mM L-glutamine, 100 U/ml penicillin, and 100 μg/ml streptomycin at 37° C. in humidified 95% air and 5% CO2. Cells were periodically tested for Mycoplasma infection and found to be negative. CB17-severe combined immunodeficiency (SCID) mice (Charles River laboratories, Lyon, France), kept and handled according to institutional guidelines, complying with Spanish legislation under a 12/12 h light/dark cycle at a temperature of 22° C., received a standard diet and acidified water ad libitum. CB17-SCID mice were inoculated subcutaneously into their lower dorsum with 1.5×10^7 EHEB cells in 100 μl PBS and 100 μl Matrigel basement membrane matrix (Becton Dickinson). When tumors were palpable, mice were randomly assigned into cohorts of 10 mice each, receiving i.v. administration (3 times/week) of the compound at the tail. The volume used for each i. v. administration was […] rendering a final drug concentration of 2.5 mg/kg (body weight). Mice i. v. administered with an equal volume of vehicle were run in parallel. The shortest and longest diameter of the tumor were measured with calipers, and tumor volume (10^−3 cm^3) was calculated using the following standard formula: (the shortest diameter)^2×(the longest diameter)×0.5. Animals were sacrificed, according to institutional guidelines, when the diameter of their tumors reached 3 cm or when significant toxicity was observed. Animal body weight and any sign of morbidity were monitored. Drug treatment lasted for 41 days. Then, tumor xenografts were isolated, measured and weighed, and a necropsy analysis involving tumors and distinct organs was carried out. All values were expressed as means±SD. Statistical differences between groups were assessed using the Mann-Whitney test or the Student's t-test. A p value of less than 0.05 was considered statistically significant. Results are depicted in FIG. 1.

MM1S cells = experiment: Multiple myeloma xenograft animal model; type: in vivo, CB17-SCID mice; settings: 2.5 mg/kg i.v. 3 times/week
Description: The multiple myeloma (MM) MM1S cell line was cultured in RPMI-1640 medium containing 10% (v/v) heat-inactivated fetal bovine serum, 2 mM L-glutamine, 100 U/ml penicillin, and 100 μg/ml streptomycin at 37° C. in humidified 95% air and 5% CO2. Cells were periodically tested for Mycoplasma infection and found to be negative.
CB 17-severe combined immunodeficiency (SCID) mice (Charles River laboratories, Lyon, France), kept and handled according to institutional guidelines, complying with Spanish legislation under a 12/12 h light/dark cycle at a temperature of 22° C., received a standard diet and acidified water ad libitum. CB17-SCID mice were inoculated subcutaneously into their lower dorsum with 3×10^7MM1S cells in 100 μl PBS and 100 μl Matrigel basement membrane matrix (Becton Dickinson). When tumors were palpable, mice were randomly assigned into cohorts of 10 mice each, receiving i.v. administration (3 times/week) of the compound at the tail. The volume used for each i. v. administration was […] rendering a final drug concentration of 2.5 mg/kg (body weight). Mice i.v. administered with an equal volume of vehicle were run in parallel. The shortest and longest diameter of the tumor were measured with calipers, and tumor volume (10^−3 cm^3) was calculated using the following standard formula: […]. Animals were sacrificed, according to institutional guidelines, when the diameter of their tumors reached 3 cm or when significant toxicity was observed. Animal body weight and any sign of morbidity were monitored. Drug treatment was for 1 month. Then, tumors were isolated, measured and weighed, and a necropsy analysis involving tumors and distinct organs was carried out.

B16 melanoma mouse cells = experiment: Melanoma orthotopic animal model; type: in vivo; settings: 30 mg/kg intraperitoneal
Description: Compound 3 dose was 30 mg/kg intraperitoneal in all of these experiments.
FIG. 5A represents a PET picture of melanoma tumor luciferase activity in vivo. The intensity of the signal is higher on tumours with more proliferative cells. […] FIG. 5C is a graph showing melanoma tumor weight after control or Compound 3 treatment. 4 different and independent experiments with n=4 animals per group were carried out.

[1] = 2.5 mg/kg i.v. 3 times/week, 41 days
[2] = ex vivo after 41 days, 2.5 mg/kg i.v. 3 times/week
[3] = vs control, 2.5 mg/kg i.v. 3 times/week, 41 days

## Fc1ccc(CNCCCC=C(c2ccccc2)c2ccccc2)cc1 [Compound 3, (5,5-diphenyl-pent-4-enyl)-(4-fluoro-benzyl)-amine hydrocloride]
EHEB cells; [1]
  CLL tumor growth compared with the control group: inhibited CLL tumor growth; also recorded: stadistically significant
  necropsy analysis of distinct organs: No significant events or changes in the distinct organs
EHEB cells; compared to drug-free tumor-bearing control mice
  vascularization of isolated tumors: very little vascularization
EHEB cells; [2]
  Tumor Volume: 0.487 cm^3
  Tumor Weight: 0.932 g
EHEB cells; [3]
  Inhibition (%) of Tumor Volume: 74.88** %
  Inhibition (%) of Tumor Weight: 50.69** %
MM1S cells; 1 month
  MM tumor volume, difference over the control for all measure days: stadistically significant
MM1S cells; ex vivo after 1 month
  Tumor Volume: 0.288 cm^3
  Tumor Weight: 0.647 g
MM1S cells; vs control, 1 month
  Inhibition (%) of Tumor Volume: 92.26** %
  Inhibition (%) of Tumor Weight: 85.84* %
B16 melanoma mouse cells
  in vivo antitumor activity, melanoma: potent in vivo antitumor activity
